Usually IC50 stands for the point on the concentration scale where inhibition reaches its midpoint. The viability, T/C is the result in the treated group divided by that in the control group, in per cent.

SMILES strings stand for the structures. “And” between values parts separate entries of the source, which are not always exact repeats. Equal values may be shown once.

This note sets out measurements from PubChem BioAssay AID2060506 (Molecular Pharmacology Branch, DTP, NCI, 2025).

In this experiment the test system is 598228-144-R-J1-PDC complex spheroid viability. Nature of the experiment: Anticancer human tumor 598228-144-R-J1-PDC patient-derived serous endometrial adenocarcinoma cell line growth inhibition [GQUAD]. Conditions: for viability, T/C: stronger effect = lower value. The text has this: DNA G-quadruplex Stabilizer Agents in Combinations in Complex Spheroids
A high-throughput screen of multi-cell type tumor spheroids was designed to identify active combinations of DNA G-quadruplex stabilizer agents and targeted small molecules. Complex spheroids include a stromal component modeled by human endothelial cells (HUVEC) and fibroblasts modeled by human mesenchymal stem cells (MSCs). The concentration ranges selected for each drug and investigational agent were based upon clinically achievable concentrations if the clinical Cmax of the agent was known.
Compounds. The drugs and investigational agents: pidnarulex (CX-5461; NSC782164), APTO-253 (NSC789042), BRACO-19 (NSC847499), peposertib (NSC802822), ceralasertib (NSC780249), elimusertib (NSC800525), camonsertib (NSC841442), AZD-1390 (NSC803789), olaparib (NSC753686), talazoparib (NSC767125), ART-558 (NSC835418), sotorasib (NSC818433), MRTX-1133 (NSC836407), SN-38 (NSC673596), topotecan (NSC609699), etoposide (NSC141540), doxorubicin (NSC123127), gemcitabine (NSC613327), 5-fluorouracil (NSC19893), paclitaxel (NSC125973), vemurafenib (NSC761431), panobinostat (NSC761190), R-306465 (JNJ-16241199; NSC773264), adavosertib (NSC754352), TP-3654 (NSC805149), carboplatin (NSC241240), KSQ-4279 (NSC840948), and staurosporine (NSC755774) were obtained from the National Cancer Institute (NCI) Developmental Therapeutics Program Chemical Repository (34). The FDA-approved anticancer drug set is available from the NCI Developmental Therapeutics Program. […] The stock solutions were prepared in dimethyl sulfoxide (DMSO, Sigma-Aldrich, St. Louis, MO, cat. D2650) at 800-fold the tested concentration and stored at -70 degrees C prior to their use. All drugs and investigational agents were tested over a range starting from a high concentration at or near the clinical Cmax and decreasing in half-log increments. If the clinical Cmax for an agent had not been determined, the highest concentration tested was 10 microM.
2.3 Cell Culture. All cells were maintained in an incubator at 37 degrees C and 5% CO2 with 95% humidity. The PDC lines were cultured according to standard operating procedures established by the NCI PDMR. All PDCs were thawed and cultured in Matrigel-coated flasks prepared with a working solution of 1X Ham's F-12 nutrient mix, without supplementation (Invitrogen, cat. 11765054), 100 U/mL penicillin-streptomycin (Invitrogen, cat. 15140122), and 2.5% Matrigel (Corning Inc., cat. 354248) for the first three passages. The 857933-349-R-J2-PDC line was cultured in 6C/Colon 1B media, which includes advanced DMEM/F-12 (Thermo Fisher Scientific, cat. 12634028), 10 mM HEPES (Thermo Fisher Scientific, cat. 15630080), 1X GlutaMAX supplement (Thermo Fisher Scientific, cat. 35050061), 0.1 mg/mL primocin (InvivoGen, cat. ant-pm-2), 10% defined fetal bovine serum, heat inactivated (HyClone Laboratories Inc., cat. SH30070.03HI), 50% L-WRN conditioned media (ATCC, cat. CRL-3276), 1.25 mM N-Acetyl-L-cysteine (Sigma-Aldrich, cat. A9165), 10 mM nicotinamide (Sigma-Aldrich, cat. N0636), 1X B-27 supplement (Thermo Fisher Scientific, cat. 17504044), 1X N-2 supplement (Thermo Fisher Scientific, cat. 17502048), 10 microM Y-27632 dihydrochloride (Tocris Bioscience, cat. 1254), and 50 ng/mL human EGF recombinant protein (Thermo Fisher Scientific, cat. PHG0311). The 485176-168-R4-J1-PDC line was cultured in Panc media, which includes all 6C/Colon 1B media components plus 100 ng/mL human FGF-10 (Thermo Fisher Scientific, cat. 100-26), 500 nM SB-431542 (Selleckchem, cat. S1067), and gastrin (Tocris, cat. 3006).
[…]
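Also: spheroids exposed to the agents for one week before reading.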
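For viability, T/C in this document: percent of vehicle DMSO control viability so 100% = untreated growth.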

On to `CC(C)(O)C1CCC(Nc2ccc3ncc(-c4cccc(C(F)(F)F)c4)n3n2)CC1` (stereo not drawn) + CN(C)c1ccc(Nc2c3ccc(NC(=O)CCN4CCCC4)cc3nc3cc(NC(=O)CCN4CCCC4)ccc23)cc1, for which the concentration for half-maximal inhibition (IC50) is, setting by setting: (curve of first compound, second compound 0.0316 µM) 1860 nM; (curve of first compound, second compound 0.1 µM) 1910 nM; (curve of first compound, second compound 0.316 µM) 2100 nM; (curve of first compound, second compound 1 µM) 1890 nM; (curve of first compound, second compound 3.16 µM) 1970 nM; (curve of first compound, second compound 10 µM) 1810 nM. The viability, T/C is, setting by setting: (second compound 0.0316 µM, first compound 0.0316 µM) 112%; (second compound 0.0316 µM, first compound 0.1 µM) 95.7%; (second compound 0.0316 µM, first compound 0.316 µM) 79.2%; (second compound 0.0316 µM, first compound 1 µM) 78.5%; (second compound 0.0316 µM, first compound 3.16 µM) 25.1%; (second compound 0.0316 µM, first compound 10 µM) 27.3%. In addition, the viability, T/C was 96.3% (second compound 0.1 µM, first compound 0.0316 µM); 99% (second compound 0.1 µM, first compound 0.1 µM); 112% (second compound 0.1 µM, first compound 0.316 µM); 81.4% (second compound 0.1 µM, first compound 1 µM); 26.6% (second compound 0.1 µM, first compound 3.16 µM); 24.1% (second compound 0.1 µM, first compound 10 µM). Besides, the viability, T/C is, setting by setting: (second compound 0.316 µM, first compound 0.0316 µM) 98.9%; (second compound 0.316 µM, first compound 0.1 µM) 87.8%; (second compound 0.316 µM, first compound 0.316 µM) 112%; (second compound 0.316 µM, first compound 1 µM) 85.3%; (second compound 0.316 µM, first compound 3.16 µM) 31%; (second compound 0.316 µM, first compound 10 µM) 24.1%. Further, the viability, T/C (second compound 1 µM, first compound 0.0316 µM) was 101%; the viability, T/C (second compound 1 µM, first compound 0.1 µM) was 87.9%; the viability, T/C (second compound 1 µM, first compound 0.316 µM) is 128%; the viability, T/C (second compound 1 µM, first compound 1 µM) was 79%; the viability, T/C (second compound 1 µM, first compound 3.16 µM) was 29.5%; the viability, T/C (second compound 1 µM, first compound 10 µM) is 23.4%. Besides, the viability, T/C by setting is: (second compound 3.16 µM, first compound 0.0316 µM) 110%; (second compound 3.16 µM, first compound 0.1 µM) 104%; (second compound 3.16 µM, first compound 0.316 µM) 107%; (second compound 3.16 µM, first compound 1 µM) 89.1%; (second compound 3.16 µM, first compound 3.16 µM) 22.6%; (second compound 3.16 µM, first compound 10 µM) 21.8%. The viability, T/C runs as follows: (second compound 10 µM, first compound 0.0316 µM) 93.3%; (second compound 10 µM, first compound 0.1 µM) 75.3%; (second compound 10 µM, first compound 0.316 µM) 81.7%; (second compound 10 µM, first compound 1 µM) 76.6%; (second compound 10 µM, first compound 3.16 µM) 24.8%; (second compound 10 µM, first compound 10 µM) 16.6%.

For the compound `Nc1ccn(C2OC(CO)C(O)C2(F)F)c(=O)n1` (stereo not drawn), the viability, T/C (compound 0.0316 µM) was 44.7% and 45.7% and 52.1%; the viability, T/C (compound 0.1 µM) is 46.9% and 45.7% and 47.2%; the viability, T/C (compound 0.316 µM) is 49.2% and 45.3% and 41.9%; the viability, T/C (compound 1 µM) was 52% and 47.8% and 53%; the viability, T/C (compound 3.16 µM) is 40.2% and 36.2% and 38.9%; the viability, T/C (compound 10 µM) was 47.3% and 43.5% and 45.3%. Besides, under “curve of compound”, the IC50 is < 31.6 nM.

`CCc1c2c(nc3ccc(O)cc13)-c1cc3c(c(=O)n1C2)COC(=O)[C@]3(O)CC`: the viability, T/C is 72.2% and 58.7% and 67.3% (compound 0.000999 µM); 58.9% and 53.5% and 66.5% (compound 0.00316 µM); 59.5% and 47.4% and 56.2% (compound 0.00999 µM); 43.9% and 44.5% and 44.3% (compound 0.0316 µM); 28.2% and 31% and 38.2% (compound 0.0999 µM); 19.5% and 18.4% and 18.3% (compound 0.316 µM). For the same compound, the IC50 (curve of compound) is 17.3 nM and 8.3 nM and 23.2 nM.

Turning to `CC1COCCN1c1cc(-c2ccnn2C)c2ccnc(-c3ccn[nH]3)c2n1` (stereo not drawn), the viability, T/C (compound 0.0316 µM) was 76% and 72.5% and 81.6%; the viability, T/C (compound 0.1 µM) is 52.9% and 44.2% and 42.1%; the viability, T/C (compound 0.316 µM) is 37.5% and 47.8% and 36.9%; the viability, T/C (compound 1 µM) was 43.9% and 35.5% and 42.2%; the viability, T/C (compound 3.16 µM) is 50% and 39.5% and 40.7%; the viability, T/C (compound 10 µM) is 39.6% and 33.4% and 38.9%. Also, the concentration for half-maximal inhibition (IC50) (curve of compound) is 140 nM and 91.6 nM and 79 nM.
